Laboratory results from patent US8642590B2, “Alkylcyclohexylethers of dihydrotetraazabenzoazulenes” (Hoffmann-La Roche Inc., priority 2008, dated 2014).
Structures can show the parent of a compound that is named as a salt.

target: T1, human V1a receptor (Homo sapiens, UniProt P37288); test: human V1a receptor binding study (3H-Vasopressin, SPA beads, HEK293 membranes); details: not given
T1 construct: expressed in transfected cells; host or cells: HEK293 cells, transiently transfected; cell membranes prepared
Experimental: The human V1a receptor was cloned by RT-PCR from total human liver RNA. The coding sequence was subcloned in an expression vector after sequencing to confirm the identity of the amplified sequence. […] Cell membranes were prepared from HEK293 cells transiently transfected with the expression vector and grown in 20 liter fermenters with the following protocol.
50 g of cells are resuspended in 30 ml freshly prepared ice cold Lysis buffer (50 mM HEPES, 1 mM EDTA, 10 mM magnesium dichloride adjusted to pH=7.4+complete cocktail of protease inhibitor (Roche Diagnostics)). Homogenized with Polytron for 1 min and sonicated on ice for 2×2 minutes at 80% intensity (Vibracell sonicator). The preparation is centrifuged 20 min at 500 g at 4° C., the pellet is discarded and the supernatant centrifuged 1 hour at 43,000 g at 4° C. (19,000 rpm). The pellet is resuspended in 12.5 ml Lysis buffer+12.5 ml Sucrose 20% and homogenized using a Polytron for 1-2 min. The protein concentration is determined by the Bradford method and aliquots are stored at −80° C. until use. For binding studies 60 mg Yttrium silicate SPA beads (Amersham) are mixed with an aliquot of membrane in binding buffer (50 mM Tris, 120 mM sodium chloride, 5 mM potassium chloride, 2 mM Calcium dichloride, 10 mM magnesium dichloride) for 15 minutes with mixing. 50 μl of bead/membrane mixture is then added to each well of a 96 well plate, followed by 50 μl of 4 nM 3H-Vasopressin (American Radiolabeled Chemicals). For total binding measurement 100 μl of binding buffer are added to the respective wells, for non-specific binding 100 μl of 8.4 mM cold vasopressin and for compound testing 100 μl of a serial dilution of each compound in 2% dimethyl sulfoxide. The plate is incubated 1 h at room temperature, centrifuged 1 min at 1000 g and counted on a Packard Top-Count. Non-specific binding counts are subtracted from each well and data is normalized to the maximum specific binding set at 100%. To calculate an IC 50 the curve is fitted using a non-linear regression model (XLfit) and the Ki is calculated using the Cheng-Prussoff equation.

T1 sequence (P37288 whole entry): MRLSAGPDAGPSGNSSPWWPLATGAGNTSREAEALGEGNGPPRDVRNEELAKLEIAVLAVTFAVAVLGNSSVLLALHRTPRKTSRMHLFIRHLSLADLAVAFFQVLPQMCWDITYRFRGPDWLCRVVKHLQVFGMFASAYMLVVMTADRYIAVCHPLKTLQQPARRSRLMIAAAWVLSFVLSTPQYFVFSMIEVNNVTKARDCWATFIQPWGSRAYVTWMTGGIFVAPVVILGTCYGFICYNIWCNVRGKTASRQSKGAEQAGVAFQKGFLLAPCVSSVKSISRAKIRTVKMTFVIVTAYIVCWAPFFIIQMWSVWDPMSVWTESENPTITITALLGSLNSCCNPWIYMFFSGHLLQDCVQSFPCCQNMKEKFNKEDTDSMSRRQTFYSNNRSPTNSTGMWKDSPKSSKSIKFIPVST

SMILES | Ki [nM]
CC(C)(C)OC(=O)N1Cc2cc(Cl)ccc2-n2c(nnc2[C@H]2CC[C@H](OC3COC3)CC2)C1 [Example 57, trans-8-Chloro-1-[4-(oxetan-3-yloxy)-cyclohexyl]-4H,6H-2,3,5,10b-tetraaza-benzo[e]azulene-5-carboxylic acid tert-butyl ester] | 6.17

same assay, conditions: membranes of HEK293 cells transiently transfected with human V1a receptor; 3H-Vasopressin; Ki calculated using the Cheng-Prussoff equation; read-out: pKi (hV1a) (converted)

SMILES | Ki [nM]
CN1Cc2cc(Cl)ccc2-n2c(nnc2[C@H]2CC[C@H](OC3COC3)CC2)C1 [Example 58, trans-8-Chloro-5-methyl-1-[4-(oxetan-3-yloxy)-cyclohexyl]-5,6-dihydro-4H-2,3,5,10b-tetraaza-benzo[e]azulene] | 46.8
CC(C)(C)OC(=O)N1Cc2cc(Cl)ccc2-n2c(nnc2[C@H]2CC[C@H](OC3CCOCC3)CC2)C1 [Example 59, trans-8-Chloro-1-[4-(tetrahydro-pyran-4-yloxy)-cyclohexyl]-4H,6H-2,3,5,10b-tetraaza-benzoazulene-5-carboxylic acid tert-butyl ester] | 5.62
CC(C)(C)OC(=O)N1Cc2cc(Cl)ccc2-n2c(nnc2[C@H]2CC[C@@H](OC3CCOCC3)CC2)C1 [Example 60, cis-8-Chloro-1-[4-(tetrahydro-pyran-4-yloxy)-cyclohexyl]-4H,6H-2,3,5,10b-tetraaza-benzoazulene-5-carboxylic acid tert-butyl ester] | 7.08
Clc1ccc2c(c1)CNCc1nnc([C@H]3CC[C@H](OC4CCOCC4)CC3)n1-2 [Example 61, trans-8-Chloro-1-[4-(tetrahydro-pyran-4-yloxy)-cyclohexyl]-5,6-dihydro-4H-2,3,5,10b-tetraaza-benzoazulene hydrochloride] | 447
CN1Cc2cc(Cl)ccc2-n2c(nnc2[C@H]2CC[C@H](OC3CCOCC3)CC2)C1 [Example 62, trans-8-Chloro-5-methyl-1-[4-(tetrahydro-pyran-4-yloxy)-cyclohexyl]-5,6-dihydro-4H-2,3,5,10b-tetraaza-benzoazulene] | 20
Clc1ccc2c(c1)CNCc1nnc([C@H]3CC[C@@H](OC4CCOCC4)CC3)n1-2 [Example 63, cis-8-Chloro-1-[4-(tetrahydro-pyran-4-yloxy)-cyclohexyl]-5,6-dihydro-4H-2,3,5,10b-tetraaza-benzoazulene hydrochloride] | 288
CN1Cc2cc(Cl)ccc2-n2c(nnc2[C@H]2CC[C@@H](OC3CCOCC3)CC2)C1 [Example 64, cis-8-Chloro-5-methyl-1-[4-(tetrahydro-pyran-4-yloxy)-cyclohexyl]-5,6-dihydro-4H-2,3,5,10b-tetraaza-benzoazulene] | 17
CC(C)(C)OC(=O)N1Cc2cc(Cl)ccc2-n2c(nnc2[C@H]2CC[C@H](OC(F)(F)F)CC2)C1 [Example 65, trans-8-Chloro-1-(4-trifluoromethoxy-cyclohexyl)-4H,6H-2,3,5,10b-tetraaza-benzo[e]azulene-5-carboxylic acid tert-butyl ester] | 14.5
FC(F)(F)O[C@H]1CC[C@H](c2nnc3n2-c2ccc(Cl)cc2CNC3)CC1 [Example 66, trans-8-Chloro-1-(4-trifluoromethoxy-cyclohexyl)-5,6-dihydro-4H-2,3,5,10b-tetraaza-benzo[e]azulene hydrochloride] | 195
CN1Cc2cc(Cl)ccc2-n2c(nnc2[C@H]2CC[C@H](OC(F)(F)F)CC2)C1 [Example 67, trans-8-Chloro-5-methyl-1-(4-trifluoromethoxy-cyclohexyl)-5,6-dihydro-4H-2,3,5,10b-tetraaza-benzo[e]azulene] | 26.3
CC(C)(C)OC(=O)N1Cc2cc(Cl)ccc2-n2c(nnc2[C@H]2CC[C@H](OC(C)(C)C)CC2)C1 [Example 68, trans-1-(4-tert-Butoxy-cyclohexyl)-8-chloro-4H,6H-2,3,5,10b-tetraaza-benzo[e]azulene-5-carboxylic acid tert-butyl ester] | 3.8
